What was measured:
mGAT1 = target: T1, mGAT1 (Mus musculus, UniProt P31648); experiment: [3H]GABA uptake at mouse GABA transporters, HEK-293 cells; format: cell-based
T1 construct: expressed in transfected cells
Experimental: (§1) Cortical neurons were cultured essentially as previously described by removing the neopallium of 15-day old NMRI embryos by dissection followed by mild trypsination. Hertz E, Yu A C H, Hertz L, Juurlink B H J and Schousboe A. Preparation of Primary Cultures of Mouse Cortical Neurons, in A Dissection and Tissue Culture Manual of the Nervous System (Shahar A, de Vellis J, Vernadakis A and Haber B eds) pp 183-186, Alan R. Liss, Inc., New York, 198. The neurons were cultured in 10% fetal calf serum and, after 48 h, cytosine arabinoside was added to a final concentration of 20 μM to prevent glial proliferation. Four cultures of stably transfected Human Embryonic Kidney (HEK)-293 cells expressing mGAT1-4 were prepared by the method previously reported. […] J Pharmacol Exp Ther. 2002, 302, 636-644 The stable cell lines are under the selection pressure of blasticidin-S at 5 μg/mL. Determinations of the IC50 values were conducted as described earlier. […] Radioactivity was measured using Microscint™ 20 scintillation fluid (PerkinElmer) and a Packard TopCount microplate scintillation counter.

mGAT2 = target: T2, mGAT2 (Mus musculus, UniProt P31651); experiment: as above; format: cell-based
T2 construct: expressed in transfected cells
Experimental: as §1

mGAT3 = target: T3, mGAT3 (Mus musculus, UniProt P31649); experiment: as above; format: cell-based
T3 construct: expressed in transfected cells
Experimental: as §1

mGAT4 = target: T4, mGAT4 (Mus musculus, UniProt P31650); experiment: as above; format: cell-based
T4 construct: expressed in transfected cells
Experimental: as §1

cortical neurons = experiment: [3H]GABA uptake in cultured cortical neurons; format: cell-based; conditions: Mus musculus, Cortical neurone; read-out: neuron uptake IC50
Experimental: as §1

Rat = experiment: subcutaneous Metrazol seizure threshold test (scMET); format: in vivo; conditions: 7 days IP, 20 mg/kg dose only, Metrazol 70 mg/kg
Experimental: Subcutaneous injection of the convulsant Metrazol produces clonic seizures in laboratory animals. […] Animals are pretreated with various doses of the test compound given by i.p. injection. At the previously determined TPE of the test compound, the dose of Metrazol which will induce convulsions in 97% of animals (CD97; 85 mg/kg mice) is injected into a loose fold of skin in the midline of the neck. The animals are placed in isolation cages to minimize stress (Swinyard et al, 1961) and observed for the next 30 minutes for the presence or absence of a seizure. An episode of clonic spasms, approximately 3-5 seconds, of the fore and/or hindlimbs, jaws, or vibrissae is taken as the endpoint.

GABAB receptor = GABAB receptor (Rattus norvegicus, UniProt Q9Z0U4); conditions: 100 μM, rat brain cortical homogenate
Sequence of GABAB receptor (Q9Z0U4 17-960 limits assumed): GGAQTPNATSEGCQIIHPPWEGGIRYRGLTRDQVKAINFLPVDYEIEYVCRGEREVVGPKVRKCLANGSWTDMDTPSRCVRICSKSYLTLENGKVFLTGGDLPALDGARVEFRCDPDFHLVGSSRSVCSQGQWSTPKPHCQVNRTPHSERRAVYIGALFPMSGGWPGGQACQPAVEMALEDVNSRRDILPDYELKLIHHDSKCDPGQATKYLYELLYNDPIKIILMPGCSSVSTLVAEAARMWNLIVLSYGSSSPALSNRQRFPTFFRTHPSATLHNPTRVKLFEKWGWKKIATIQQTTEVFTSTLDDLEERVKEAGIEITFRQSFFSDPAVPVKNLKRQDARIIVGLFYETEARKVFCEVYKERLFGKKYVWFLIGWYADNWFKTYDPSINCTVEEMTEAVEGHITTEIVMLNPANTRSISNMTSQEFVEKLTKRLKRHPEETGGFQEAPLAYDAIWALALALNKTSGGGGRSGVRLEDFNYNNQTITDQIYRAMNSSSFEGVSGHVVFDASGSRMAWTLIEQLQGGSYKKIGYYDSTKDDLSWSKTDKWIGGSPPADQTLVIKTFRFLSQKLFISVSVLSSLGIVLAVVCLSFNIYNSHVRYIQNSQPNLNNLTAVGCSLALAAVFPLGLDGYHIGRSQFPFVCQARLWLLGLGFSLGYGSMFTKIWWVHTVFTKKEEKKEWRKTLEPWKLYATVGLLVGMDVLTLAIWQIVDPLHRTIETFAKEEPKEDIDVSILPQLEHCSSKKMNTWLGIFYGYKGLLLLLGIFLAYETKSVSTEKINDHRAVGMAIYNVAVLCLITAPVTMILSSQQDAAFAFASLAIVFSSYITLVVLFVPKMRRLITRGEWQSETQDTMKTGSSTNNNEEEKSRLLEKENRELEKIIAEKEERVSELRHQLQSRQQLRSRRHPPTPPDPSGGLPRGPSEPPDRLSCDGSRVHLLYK
Sequence of GABAB receptor (O88871 41-940 partner): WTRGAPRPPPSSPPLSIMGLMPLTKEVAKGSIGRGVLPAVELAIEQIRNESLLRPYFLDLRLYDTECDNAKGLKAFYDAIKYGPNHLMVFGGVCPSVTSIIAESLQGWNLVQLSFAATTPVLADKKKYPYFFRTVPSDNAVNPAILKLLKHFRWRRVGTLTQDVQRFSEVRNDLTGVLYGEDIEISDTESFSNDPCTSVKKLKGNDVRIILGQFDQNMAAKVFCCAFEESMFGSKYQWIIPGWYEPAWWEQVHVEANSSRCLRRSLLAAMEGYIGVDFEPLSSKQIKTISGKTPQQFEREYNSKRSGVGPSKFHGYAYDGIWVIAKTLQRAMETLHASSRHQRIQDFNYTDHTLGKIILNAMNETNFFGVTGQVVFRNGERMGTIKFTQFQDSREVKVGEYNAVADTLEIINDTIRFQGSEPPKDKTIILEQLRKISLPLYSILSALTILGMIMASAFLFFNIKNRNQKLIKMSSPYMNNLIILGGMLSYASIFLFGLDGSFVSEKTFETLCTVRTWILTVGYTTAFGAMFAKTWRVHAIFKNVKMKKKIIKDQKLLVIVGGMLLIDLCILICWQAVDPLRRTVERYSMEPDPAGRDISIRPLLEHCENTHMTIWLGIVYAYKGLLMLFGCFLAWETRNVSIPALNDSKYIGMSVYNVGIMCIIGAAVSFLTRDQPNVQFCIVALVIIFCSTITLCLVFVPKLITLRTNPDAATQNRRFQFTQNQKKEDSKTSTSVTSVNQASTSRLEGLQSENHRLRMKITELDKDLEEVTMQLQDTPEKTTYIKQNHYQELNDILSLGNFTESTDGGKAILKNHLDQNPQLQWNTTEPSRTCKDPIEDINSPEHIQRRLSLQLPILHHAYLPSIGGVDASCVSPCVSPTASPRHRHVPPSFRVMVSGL

T4 sequence (P31650 whole entry): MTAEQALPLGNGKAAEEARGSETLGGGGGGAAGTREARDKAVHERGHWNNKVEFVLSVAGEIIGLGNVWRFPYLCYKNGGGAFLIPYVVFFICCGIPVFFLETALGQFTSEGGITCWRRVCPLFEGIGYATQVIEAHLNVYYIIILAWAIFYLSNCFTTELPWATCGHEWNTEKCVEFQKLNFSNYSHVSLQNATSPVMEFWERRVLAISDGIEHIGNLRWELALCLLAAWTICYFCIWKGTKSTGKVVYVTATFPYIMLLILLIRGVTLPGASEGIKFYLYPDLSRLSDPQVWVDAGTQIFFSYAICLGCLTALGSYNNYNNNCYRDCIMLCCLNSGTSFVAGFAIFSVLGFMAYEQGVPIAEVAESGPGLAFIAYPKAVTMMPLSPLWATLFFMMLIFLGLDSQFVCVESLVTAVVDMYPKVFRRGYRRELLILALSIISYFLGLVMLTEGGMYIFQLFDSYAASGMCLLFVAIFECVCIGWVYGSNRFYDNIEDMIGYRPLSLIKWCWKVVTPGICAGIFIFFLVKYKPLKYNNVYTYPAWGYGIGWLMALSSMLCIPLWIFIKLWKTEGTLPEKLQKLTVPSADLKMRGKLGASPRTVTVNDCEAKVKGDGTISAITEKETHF
T2 sequence (P31651 whole entry): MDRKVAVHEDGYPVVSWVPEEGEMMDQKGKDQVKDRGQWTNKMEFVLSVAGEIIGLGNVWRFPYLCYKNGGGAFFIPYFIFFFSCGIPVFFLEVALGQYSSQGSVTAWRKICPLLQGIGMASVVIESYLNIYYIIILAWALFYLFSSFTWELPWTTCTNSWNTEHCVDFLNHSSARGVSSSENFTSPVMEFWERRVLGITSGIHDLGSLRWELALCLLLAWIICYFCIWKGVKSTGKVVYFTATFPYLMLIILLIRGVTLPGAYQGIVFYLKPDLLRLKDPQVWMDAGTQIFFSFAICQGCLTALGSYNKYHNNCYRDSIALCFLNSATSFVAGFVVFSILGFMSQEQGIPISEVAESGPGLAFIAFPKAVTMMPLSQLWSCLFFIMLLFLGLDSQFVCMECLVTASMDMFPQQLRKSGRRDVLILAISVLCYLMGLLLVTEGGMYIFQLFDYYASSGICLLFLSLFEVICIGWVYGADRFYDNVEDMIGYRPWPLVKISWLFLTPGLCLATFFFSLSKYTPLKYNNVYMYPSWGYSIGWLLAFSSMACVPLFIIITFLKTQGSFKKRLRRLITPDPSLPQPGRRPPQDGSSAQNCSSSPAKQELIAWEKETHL
T3 sequence (P31649 whole entry): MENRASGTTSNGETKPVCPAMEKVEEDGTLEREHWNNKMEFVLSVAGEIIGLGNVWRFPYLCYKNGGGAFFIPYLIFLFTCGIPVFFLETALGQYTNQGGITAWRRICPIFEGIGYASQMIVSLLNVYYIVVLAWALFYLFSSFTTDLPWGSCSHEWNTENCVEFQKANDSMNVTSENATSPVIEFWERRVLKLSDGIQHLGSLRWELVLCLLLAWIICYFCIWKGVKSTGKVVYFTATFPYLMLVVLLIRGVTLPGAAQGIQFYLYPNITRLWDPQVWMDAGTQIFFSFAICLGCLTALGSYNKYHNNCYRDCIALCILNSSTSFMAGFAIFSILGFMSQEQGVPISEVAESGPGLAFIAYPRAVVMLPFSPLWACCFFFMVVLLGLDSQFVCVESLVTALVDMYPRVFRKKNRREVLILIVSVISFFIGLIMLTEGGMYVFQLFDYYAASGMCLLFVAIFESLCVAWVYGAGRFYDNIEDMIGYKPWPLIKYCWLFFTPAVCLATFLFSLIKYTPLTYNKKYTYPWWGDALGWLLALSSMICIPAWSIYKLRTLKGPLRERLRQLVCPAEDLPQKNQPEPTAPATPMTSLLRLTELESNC

## N[C@H]1C[C@@H](C(=O)O)CC1=C(F)F [CPP-115]
mGAT1
  IC50: > 1000 µM
mGAT2
  IC50: > 1000 µM
mGAT3
  IC50: > 1000 µM
mGAT4
  IC50: > 1000 µM
Cortical neurons
  IC50: > 1000 µM
Rat
  scMET protection: No protection
GABAA receptor; 100 μM, rat brain cortical homogenate
  inhibition of radioligand binding at GABAA receptors: no inhibition of binding was observed
GABAA receptor; read-out: [3H]muscimol competition (GABAA receptor) IC50, 5 nM [3H]muscimol, 0 °C, 60 min
  IC50: > 100 µM
GABAB receptor
  inhibition of radioligand binding at GABAB receptors: no inhibition of binding was observed

Source: US8969413B2
